This note sets out measurements from patent US11180767B2, “Protease deficient filamentous fungal cells and methods of use thereof” (GLYKOS FINLAND OY, priority 2012, dated 2021).

SMILES strings stand for the structures. Non-standard residues stand in square brackets, D forms with d. Residues, ends and D or L forms follow the SMILES beside them. *: point of attachment. Sta = CC(C)C[C@H](N)[C@@H](O)CC(=O)O; Isovaleryl = CC(C)CC(=O)*

For data set [1], the system named is rituximab antibody producing strain. Put plainly: Treatment of T. reesei rituximab cultures with inhibitors. The data set is classed as cell-based, Trichoderma reesei. The settings on record: small shake flasks, inhibitors added daily day 2-5. Here is the method: The effectiveness of the inhibitors was also tested with the rituximab antibody producing strain, which contains a VALEKR linker sequence and the pep1 deletion. This strain was grown in triplicate, in small flasks both in presence or absence of chymostatin, SBTI, or pepstatin A. The small shake flasks contained 50 ml of TrMM plus lactose (40 g/l), spent grain extract (20 g/l), and buffer with 100 mM PIPPS at pH 5.5. The SBTI inhibitor was added to the culture at final concentrations of either 100 μg/ml or 500 μg/ml. Chymostatin was used at 100 μM, and pepstatin A was used at 10 μM. Each of the three inhibitors was added to the cultures daily on day 2, 3, 4, and 5.
Growth of the cultures was followed daily by pH from day 2 until day 7. […] In the PIPPS buffered cultures, the pH decreased from an initial pH of 5.5 down to a pH of 4.8 after day 6. With chymostatin and pepstatin A the cultures were monitored up to day 7. On day 7 the average pH for the control bottles was 4.6, while the average pH for chymostatin treated cultures was 4.9, and the average pH of pepstatin A treated cultures was 5.0.
Culture supernatant samples (30 μl) were also collected on days 3, 4, and 5 for analysis of antibody production. The analysis was performed by immunoblots using an anti-IgG heavy chain antibody AP conjugate (Sigma #A3188) and an anti-light chain antibody AP conjugate (Sigma #A3812). Each antibody was diluted 1:30,000 in TBST. The full length rituximab heavy chain is about 51 kD, the rituximab light chain CHBI fusion is about 100 kD, and the free rituximab light chain is about 28 kD.

Data set [2] deals with proteases in supernatant from the 6-fold protease deletion strain M400. Put plainly: Protease stability of proteins spiked into supernatant of the 6-fold protease deletion strain. It is filed as biochemical, Trichoderma reesei. The settings on record: pepstatin A 50 μM; SBTI 0.2 mg/ml; pH 4.2, 20 hours, 37°C. Here is the method: The protease stability of the model proteins IGF1, hGH, and IFNα2b were analyzed by spiking them into supernatant from the 6-fold protease deletion strain (Δpep1Δtsp1Δslp1Δgap1Δgap2Δpep4) M400. The supernatant was collected from a large shake flask culture CAH15. The undiluted supernatant from the shake flask cultivation CAH15 was incubated with the purified model proteins with and without pepstatin A (50 μM) and SBTI (0.2 mg/ml) inhibitors for 20 hours at 37° C. The 5 day culture supernatant pH was around 4.2. The reaction containing 0.05 μg μl of model protein was sampled after 20 hours. 50 mM sodium citrate pH 4.0 spiked with model proteins (0.05 g 1) was used as a buffer control.
From each reaction 10 μl was loaded into an 18% SDS PAGE gel and run for 30 minutes at 200 V. The proteins in the gel were then transferred to nitrocellulose for immunoblotting. The nitrocellulose membrane was blocked for 1 hour at room temperature with 5% milk in TBST buffer. The individual blots were probed with their specific primary antibody to detect the appropriate model protein for 1 hour at room temperature on a shaker. The mouse anti-IGF1 antibody (R&D systems #mab291) was used at 2 μg/ml diluted in TBST. The mouse anti-rhGH antibody (Abeam #ab51232) was used at 2 μg/ml diluted in TBST. The mouse anti-IFNα2b antibody (Abeam #ab9386) was used at 1 μg/ml diluted in TBST. After briefly washing the blot membranes with TBST, the secondary antibody was added for 1 hour at room temperature shaking. The secondary goat anti-mouse AP conjugated antibody (Biorad #170-6520) was diluted 1:10,000 in TBST.
This same spiking experiment as was done with MAB01 to investigate its stability in the 6 protease deletion supernatant with and without inhibitors (FIG. 43). Samples were taken as described above and immunoblotted with an anti-heavy chain AP conjugated antibody (Sigma #A3188). […] There was no obvious benefit having used inhibitors. The antibody was stable in this pH 4.2 supernatant. […]

Data set [3] deals with M369 human growth hormone strain. Nature of the data set: hGH production in 24 well cultures with inhibitors and supplements. It is filed as cell-based, Trichoderma reesei. The settings on record: 24 well culture, pH 4.5, day 4 immunoblot. Here is the method:
To evaluate what inhibitors would best stabilize production of hGH, 24 well cultures of these strains were performed. The M369 human growth hormone strain (Δpep1Δtsp1Δslp1Δgap1Δgap2) was grown along with single components or with combinations of the following: trypsin and subtilisin inhibitor SBTI, the acidic protease inhibitor peptide SIP, the acidic protease inhibitor peptide LIP, the aspartic protease inhibitor pepstatin A free peptide, pepstatin A immobilized to agarose beads, the trypsin and subtilisin inhibitor BBI from lima bean, the […] chymostatin, and BSA. Three independent wells were chosen for control wells where no inhibitors or supplements were added. These two strains were grown in 3 ml of TrMM with diammonium citrate without ammonium sulfate, 100 mM PIPPS, 20 g/L spent grain extract, 40 g/L lactose adjusted to pH 4.5. The 24 well plates were shaken at 800 rpm, 85% humidity, and 28° C. The cultures were grown for 6 days and covered with an air permeable membrane.
Inhibitors were added first on day 1 and then daily beginning on day 3. 100 μl samples were taken from the culture wells beginning on day 3. The mycelium was spun down for 5 minutes at 13 k and the supernatant collected. From the culture supernatant 12 μl was loaded in a 4-20% SDS PAGE gel and immunoblotting made on nitrocellulose with mouse anti-hGH antibody (2 μg/ml) and goat anti-mouse IgG AP conjugated secondary antibody diluted 1:10,000 in TBST.
Estimating the expression levels relative to the 200 ng control sample, the control wells produced between 3-6 mg/L of hGH, the BSA (0.25%)/SIP (50 μM)/8BTI (0.2 mg/ml) treatment produced 24.5 mg/L, the SIP (50 μM)/8BTI (0.2 mg/ml) treatment produced 26.6 mg/L, and the pepstatin A beads/SBTI (0.2 mg/ml) addition yielded 24.5 mg/L of hGH. Therefore, using a combination of inhibitors and additives worked best increasing the production levels by at least 4-fold. The critical parameter was to include an aspartic protease inhibitor into the mix.

Turning to `CC(C)CC(=O)N[C@H](C(=O)N[C@H](C(=O)N[C@@H](CC(C)C)[C@@H](O)CC(=O)N[C@@H](C)C(=O)N[C@@H](CC(C)C)[C@@H](O)CC(=O)O)C(C)C)C(C)C` [pepstatin A] (Isovaleryl-VV[Sta]A[Sta]-OH), the “effect on culture growth (followed by pH)” value in data set [1] is recorded as “small reduction in growth”. In addition, the “stabilisation of hGH, IFNα2b and IGF1 in supernatant” value in data set [2] is given as “remarkably stabilized”. Also, the “effect on hGH production” value in data set [3] is listed as “negative effect on the growth hormone production”.
